# Test results taken from BindingDB's records for doi:10.1016/j.bmcl.2004.02.040 (Ewha Womans University, 2004).
# Molecular target: cGMP-specific 3',5'-cyclic phosphodiesterase PDE5 (Oryctolagus cuniculus)
# Assay: Inhibition of phosphodiesterase 5 of rabbit platelets
smiles,measurement,value
"CCCOc1ccc(S(=O)(=O)N2CCC(CCP(=O)(O)OCC)CC2)cc1-c1nc2c(CCC)nn(C)c2c(=O)[nH]1 [(2-{1-[3-(1-Methyl-7-oxo-3-propyl-6,7-dihydro-1H-pyrazolo[4,3-d]pyrimidin-5-yl)-4-propoxy-benzenesulfonyl]-piperidin-4-yl}-ethyl)-phosphonic acid monoethyl ester]",IC50,0.29 nM
